Measurements: ChEMBL document CHEMBL1128079, “Differential RXR & RAR activity of stilbene retinoid analogs bearing thiazole and imidazole carboxylic acids” (Bioorg Med Chem Lett, 1995)

Experiments:
Format in all cases: functional
[1] = target: T1, Retinoic acid receptor RXR-beta (Homo sapiens, UniProt P28702); assay: Agonist activity for retinoic acid receptor RXR beta in transcriptional activation assay
T1 sequence (P28702 whole entry): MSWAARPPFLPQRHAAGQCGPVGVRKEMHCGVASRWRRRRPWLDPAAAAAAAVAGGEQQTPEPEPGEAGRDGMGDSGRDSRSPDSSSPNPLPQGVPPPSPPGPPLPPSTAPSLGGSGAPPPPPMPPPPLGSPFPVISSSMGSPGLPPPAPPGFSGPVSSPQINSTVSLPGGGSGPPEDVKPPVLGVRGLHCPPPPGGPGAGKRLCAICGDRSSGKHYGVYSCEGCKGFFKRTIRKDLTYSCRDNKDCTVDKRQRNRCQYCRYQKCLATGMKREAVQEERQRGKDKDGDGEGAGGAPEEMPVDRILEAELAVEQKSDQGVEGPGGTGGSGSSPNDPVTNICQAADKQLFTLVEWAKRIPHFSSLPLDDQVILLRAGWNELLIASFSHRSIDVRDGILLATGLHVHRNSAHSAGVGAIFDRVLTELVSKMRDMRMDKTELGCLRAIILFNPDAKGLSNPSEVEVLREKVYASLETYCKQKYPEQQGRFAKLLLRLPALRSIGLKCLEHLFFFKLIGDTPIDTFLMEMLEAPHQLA

[2] = target: T2, Retinoic acid receptor RXR-alpha (Homo sapiens, UniProt P19793); assay: Agonist activity for retinoic acid receptor RXR alpha in transcriptional activation assay
T2 sequence (P19793 whole entry): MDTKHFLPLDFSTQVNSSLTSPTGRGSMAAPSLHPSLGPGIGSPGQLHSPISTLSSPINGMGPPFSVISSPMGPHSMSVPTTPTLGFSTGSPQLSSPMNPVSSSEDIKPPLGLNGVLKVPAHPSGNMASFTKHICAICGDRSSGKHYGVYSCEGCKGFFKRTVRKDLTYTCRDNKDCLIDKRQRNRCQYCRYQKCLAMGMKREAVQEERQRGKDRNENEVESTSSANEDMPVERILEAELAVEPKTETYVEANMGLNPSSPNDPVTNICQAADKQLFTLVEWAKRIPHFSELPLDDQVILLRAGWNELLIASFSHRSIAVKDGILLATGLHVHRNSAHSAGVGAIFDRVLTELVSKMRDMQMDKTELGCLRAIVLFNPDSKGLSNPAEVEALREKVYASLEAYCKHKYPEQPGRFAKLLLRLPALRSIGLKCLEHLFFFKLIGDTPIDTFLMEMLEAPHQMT

[3] = target: T3, Retinoic acid receptor beta (Homo sapiens, UniProt P10826); assay: Agonist activity for retinoic acid receptor RAR beta in transcriptional activation assay; […]
T3 sequence (P10826 whole entry): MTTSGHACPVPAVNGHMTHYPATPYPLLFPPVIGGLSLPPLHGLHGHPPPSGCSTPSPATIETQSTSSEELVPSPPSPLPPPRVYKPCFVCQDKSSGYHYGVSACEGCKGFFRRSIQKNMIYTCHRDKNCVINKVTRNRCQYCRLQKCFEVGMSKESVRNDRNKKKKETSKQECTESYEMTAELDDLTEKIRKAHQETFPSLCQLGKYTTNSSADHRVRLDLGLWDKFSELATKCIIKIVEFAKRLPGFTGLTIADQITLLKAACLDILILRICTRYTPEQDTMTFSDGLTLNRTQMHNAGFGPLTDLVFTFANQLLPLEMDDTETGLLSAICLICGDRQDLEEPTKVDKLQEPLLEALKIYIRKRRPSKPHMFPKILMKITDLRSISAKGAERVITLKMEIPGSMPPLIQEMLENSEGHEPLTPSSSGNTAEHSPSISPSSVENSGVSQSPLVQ

[4] = target: T4, Retinoic acid receptor alpha (Homo sapiens, UniProt P10276); assay: Agonist activity for retinoic acid receptor RAR alpha in transcriptional activation assay; […]
T4 sequence (P10276 whole entry): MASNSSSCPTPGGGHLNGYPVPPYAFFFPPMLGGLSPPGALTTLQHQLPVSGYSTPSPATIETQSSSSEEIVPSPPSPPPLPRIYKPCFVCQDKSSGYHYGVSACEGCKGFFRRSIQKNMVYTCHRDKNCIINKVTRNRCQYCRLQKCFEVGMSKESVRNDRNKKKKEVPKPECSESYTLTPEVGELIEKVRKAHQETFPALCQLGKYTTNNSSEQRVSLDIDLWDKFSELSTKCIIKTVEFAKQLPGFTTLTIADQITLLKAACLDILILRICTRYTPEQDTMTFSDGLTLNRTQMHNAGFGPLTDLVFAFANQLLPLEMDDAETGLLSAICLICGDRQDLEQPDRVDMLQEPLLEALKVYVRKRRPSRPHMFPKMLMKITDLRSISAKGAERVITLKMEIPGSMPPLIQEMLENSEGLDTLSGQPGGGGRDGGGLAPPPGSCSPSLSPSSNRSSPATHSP

[5] = target: T5, Retinoic acid receptor gamma (Homo sapiens, UniProt P13631); assay: Agonist activity for retinoic acid receptor RAR gamma in transcriptional activation assay; […]
T5 sequence (P13631 whole entry): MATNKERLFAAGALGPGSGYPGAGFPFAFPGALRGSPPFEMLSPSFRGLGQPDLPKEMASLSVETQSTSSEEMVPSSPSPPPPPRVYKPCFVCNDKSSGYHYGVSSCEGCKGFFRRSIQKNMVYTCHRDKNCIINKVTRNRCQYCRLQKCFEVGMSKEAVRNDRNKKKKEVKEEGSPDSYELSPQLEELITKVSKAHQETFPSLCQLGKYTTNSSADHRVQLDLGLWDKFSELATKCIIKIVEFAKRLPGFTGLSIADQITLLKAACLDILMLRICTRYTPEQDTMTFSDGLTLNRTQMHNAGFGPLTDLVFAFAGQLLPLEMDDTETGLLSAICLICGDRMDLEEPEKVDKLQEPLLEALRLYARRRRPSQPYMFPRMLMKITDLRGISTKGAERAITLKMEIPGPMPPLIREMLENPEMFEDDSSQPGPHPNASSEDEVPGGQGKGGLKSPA

[6] = target: T6, Retinoic acid receptor RXR-gamma (Homo sapiens, UniProt P48443); assay: Agonist activity for retinoic acid receptor RXR gamma in transcriptional activation assay
T6 sequence (P48443 whole entry): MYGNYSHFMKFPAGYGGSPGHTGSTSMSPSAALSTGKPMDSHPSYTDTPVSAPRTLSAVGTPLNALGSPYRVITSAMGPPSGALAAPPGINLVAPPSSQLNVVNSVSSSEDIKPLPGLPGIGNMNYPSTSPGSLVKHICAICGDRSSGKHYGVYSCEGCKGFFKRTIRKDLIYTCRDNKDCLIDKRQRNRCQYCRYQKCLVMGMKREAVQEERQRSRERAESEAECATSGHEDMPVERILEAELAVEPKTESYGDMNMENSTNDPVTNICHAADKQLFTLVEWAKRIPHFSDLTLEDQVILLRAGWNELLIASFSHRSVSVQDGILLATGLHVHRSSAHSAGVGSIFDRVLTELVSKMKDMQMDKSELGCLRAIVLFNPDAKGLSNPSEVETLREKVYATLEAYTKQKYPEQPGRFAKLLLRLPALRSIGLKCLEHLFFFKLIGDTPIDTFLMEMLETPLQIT

[7] = target: T3, Retinoic acid receptor beta; assay: Agonist activity for retinoic acid receptor RAR beta in transcriptional activation assay
[8] = target: T5, Retinoic acid receptor gamma; assay: Agonist activity for retinoic acid receptor RAR gamma in transcriptional activation assay
[9] = target: T4, Retinoic acid receptor alpha; assay: Agonist activity for retinoic acid receptor RAR alpha in transcriptional activation assay

Compound	EC50 [1] [nM]	EC50 [2] [nM]	EC50 [3]	EC50 [4]	EC50 [5]	EC50 ([6]; read-out: EC50) [nM]	EC50 [7] [nM]	EC50 [8] [nM]	EC50 [9] [nM]	EC50 [6]
C/C(=C\c1nc(C(=O)O)c[nH]1)c1cc2c(cc1C)C(C)(C)CCC2(C)C	130	89	Not Active	Not Active	Not Active	170				
C/C(=C\c1ccc(C(=O)O)s1)c1cc2c(cc1C)C(C)(C)CCC2(C)C	23	35		Not Active		33	56	131		
C/C(=C\c1ncc(C(=O)O)s1)c1ccc2c(c1)C(C)(C)CCC2(C)C	210	210				160	46	34	210	
C/C(=C\c1ccc(C(=O)O)cc1)c1ccc2c(c1)C(C)(C)CCC2(C)C										Not Active
C/C(=C\c1ccc(C(=O)O)s1)c1ccc2c(c1)C(C)(C)CCC2(C)C	2300	2400				2300	29	15	690	
C/C(=C\c1cc(C(=O)O)cs1)c1cc2c(cc1C)C(C)(C)CCC2(C)C	180	215		Not Active		105	1990	979		
C/C(=C\c1ncc(C(=O)O)n1S(=O)(=O)N(C)C)c1cc2c(cc1C)C(C)(C)CCC2(C)C	180	59	Not Active	Not Active	Not Active	86				
C/C(=C\c1ncc(C(=O)O)s1)c1cc2c(cc1C)C(C)(C)CCC2(C)C	3	4		Not Active		4	220	200		
